We go through two compounds from patent US8653031B2, “Process for the preparation of compositions of AT1 receptor antagonist and Angiotensin—(1-7)” (Universidade Federal de Minas Gerais, priority 2006, dated 2014).

Experiment [1] has as its system spontaneously hypertensive rats (SHR). The experiment is described as follows: Antihypertensive test: blood pressure recorded by telemetry in SHR after oral administration. It is filed as in vivo, rat. Here is the method:
Male, spontaneously hypertensive rats (SHR) were used, with initial age of 14-16 weeks, from the Centro de Bioterismo (CEBIO, Federal University of Minas Gerais). The animals were kept with free access to food and water and were submitted to a light-dark cycle (12 hours each).
After anesthesia with tribromoethanol (0.25 g/Kg body weight), trichotomy of the abdominal region and local asepsis was made. After adjustment of the surgical field, a median incision of 4 to 6 cm was performed in the abdomen with the implantation of the transducer catheter in the abdominal aorta. After surgery, a veterinary pentabiotic was administered (0.1 ml) via intramuscular route (i.m.). […]
Records of the cardiovascular parameters, average blood pressure and heart rate were obtained by a telemetry data acquisition system (Data Science International). This monitoring system consists of 4 basic elements: (A) a sensor catheter (model—TA11PA-C40) which was inserted into the animal's abdominal aorta for collection, processing and transmission of pulsatile blood pressure; (B) a receiving signal plate (RPC-1); (C) a muliplexor that received the signal from several receiving plates and sent them to (D) the data acquisition system itself, which collected, stored and analyzed the data by means of a specific software, ART-Gold v. […]
The acute cardiovascular effects of administering the LA compound were determined. […]

The target of experiment [2] is ACE (Homo sapiens, UniProt P12821). As to conditions: read-out: IC50 for ACE inhibition; cited from earlier work.
ACE, sequence (P12821 30-1306, species assumed): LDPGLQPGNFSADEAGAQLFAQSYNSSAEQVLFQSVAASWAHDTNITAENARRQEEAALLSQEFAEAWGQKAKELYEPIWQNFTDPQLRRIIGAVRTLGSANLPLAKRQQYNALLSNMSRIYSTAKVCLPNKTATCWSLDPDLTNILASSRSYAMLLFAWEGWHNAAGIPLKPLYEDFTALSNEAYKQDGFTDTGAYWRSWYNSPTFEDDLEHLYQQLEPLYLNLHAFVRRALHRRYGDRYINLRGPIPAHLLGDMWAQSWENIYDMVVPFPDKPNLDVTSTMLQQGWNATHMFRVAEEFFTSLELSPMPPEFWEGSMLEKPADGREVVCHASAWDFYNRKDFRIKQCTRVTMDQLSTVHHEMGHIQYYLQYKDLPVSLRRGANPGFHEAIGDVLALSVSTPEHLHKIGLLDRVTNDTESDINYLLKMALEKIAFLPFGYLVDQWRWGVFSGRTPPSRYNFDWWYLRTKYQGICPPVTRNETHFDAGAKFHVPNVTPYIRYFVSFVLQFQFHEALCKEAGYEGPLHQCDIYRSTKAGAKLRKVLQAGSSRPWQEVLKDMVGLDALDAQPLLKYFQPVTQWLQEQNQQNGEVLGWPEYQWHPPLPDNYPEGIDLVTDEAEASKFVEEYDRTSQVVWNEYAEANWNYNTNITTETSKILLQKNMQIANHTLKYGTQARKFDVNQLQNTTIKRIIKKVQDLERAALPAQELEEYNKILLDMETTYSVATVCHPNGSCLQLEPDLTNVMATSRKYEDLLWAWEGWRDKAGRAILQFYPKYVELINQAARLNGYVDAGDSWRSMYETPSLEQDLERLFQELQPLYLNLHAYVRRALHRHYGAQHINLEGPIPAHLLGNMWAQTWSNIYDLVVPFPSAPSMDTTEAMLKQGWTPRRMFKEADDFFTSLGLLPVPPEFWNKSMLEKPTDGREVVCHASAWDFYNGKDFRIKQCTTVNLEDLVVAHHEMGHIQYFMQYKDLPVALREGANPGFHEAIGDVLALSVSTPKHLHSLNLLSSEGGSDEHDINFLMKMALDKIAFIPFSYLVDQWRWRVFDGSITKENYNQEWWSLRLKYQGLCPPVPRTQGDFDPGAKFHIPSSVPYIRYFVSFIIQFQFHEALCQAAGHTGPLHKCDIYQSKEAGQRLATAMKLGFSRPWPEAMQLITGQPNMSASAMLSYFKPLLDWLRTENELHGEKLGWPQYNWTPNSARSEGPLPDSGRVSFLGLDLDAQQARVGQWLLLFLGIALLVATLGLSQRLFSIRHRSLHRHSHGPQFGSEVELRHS

Take `CCCCc1nc(Cl)c(CO)n1Cc1ccc(-c2ccccc2-c2nn[nH]n2)cc1` [losartan]: the “reduction in the average blood pressure” value in experiment [1] (n=2, single oral dose equivalent to 1 mg Kg/day of losartan, after 5 hours (maximum for test compound)) was −10 mmHg. In addition, the “duration of the blood pressure lowering effect” value in experiment [1] (single oral dose equivalent to 1 mg Kg/day of losartan) is 12 h.
Broadly, the IC50 is the concentration that inhibits the measured activity by half. Consider “DRVYIHP [Ang-(1-7), Asp-Arg-Val-Tyr-Ile-His-Pro, heptapeptide of the renin-angiotensin system]”, for which the IC50 in experiment [2] was approximately 1000 nM.
